Experiments:
Assay type in all cases: in vivo
[1] = test system: Pseudoperonospora cubensis; assay: Test A: cucumber downy mildew, spray the day before inoculation (disease rating, 100 = 100% disease control); conditions: spray the day before inoculation, compounds without asterisk (not 40 or 10 ppm)
Source text: The test compounds were first dissolved in acetone in an amount equal to 3% of the final volume and then suspended at the desired concentration (in ppm) in acetone and purified water (50/50 mix by volume) containing 250 ppm of the surfactant Trem® 014 (polyhydric alcohol esters). The resulting test suspensions were then used in tests A-E. Spraying a 200 ppm test suspension to the point of run-off on the test plants was the equivalent of a rate of 500 g/ha.
The test suspension was sprayed to the point of run-off on cucumber seedlings. The following day the seedlings were inoculated with a spore suspension of Pseudoperonospora cubensis (the causal agent of cucumber downy mildew) and incubated in a saturated atmosphere at 20° C. for 24 h, and then moved to a growth chamber at 20° C. for 6 days, after which disease ratings were made.
Results for Tests A-F are given in Table A. In the table, a rating of 100 indicates 100% disease control and a rating of 0 indicates no disease control (relative to the controls). A dash (-) indicates no test results.

[2] = test system: Phytophthora infestans; assay: whole plant or invertebrate; conditions: tomato late blight
[3] = test system: Erysiphe graminis f. sp. tritici; assay: Test E: wheat powdery mildew, spray the day before inoculation (disease rating, 100 = 100% disease control)
Summary of the method: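 Protective test: spores of E. graminis f. sp. tritici dusted on wheat seedlings one day after run-off spraying of test suspension (acetone/water with 250 ppm surfactant; 200 ppm = 500 g/ha). Ratings after 7 days in growth chamber at 20° C, 100 = full control, 0 = none, relative to controls.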

[4] = test system: Plasmopara viticola; assay: Test B: grape downy mildew, spray 24 h after inoculation (disease rating, 100 = 100% disease control)
Summary of the method: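 This is a curative spray test, applied 24 h after inoculation. Compounds in 50/50 acetone–water with 250 ppm Trem 014 surfactant were sprayed to run-off on P. viticola-infected seedlings, with 200 ppm equating to 500 g/ha. Plants were kept 5 days in a 20 °C growth chamber, then 24 h humid, and scored 0–100 for disease control relative to controls.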

[5] = test system: Pseudoperonospora cubensis; assay: Test F: cucumber downy mildew, DMSO/acetone/water test suspension, spray the day before inoculation (disease rating, 100 = 100% disease control)
Summary of the method: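 Cucumber seedlings inoculated with spores one day after spraying with the test suspension (4% DMSO in acetone/water 30/70; 250 ppm ≈ 250 g/ha). Kept 24 h in saturated air, then 6 days in a growth chamber, both at 20° C. Scored as % disease control versus untreated (100 = full control).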

[6] = test system: Phytophthora infestans; assay: whole plant or invertebrate; conditions: tomato late blight; remark: listed apart in the source
[7] = spray the day before inoculation, compounds without asterisk (not 40 or 10 ppm)
[8] = spray 24 h after inoculation, compounds without asterisk (not 40 or 10 ppm)
[9] = DMSO/acetone/water suspension, spray the day before inoculation, compounds without asterisk
[10] = spray 17 h after inoculation, compounds without asterisk (not 40 or 10 ppm)
[11] = DMSO/acetone/water test suspension, sprayed the day before inoculation, unmarked compounds (no asterisk)
[12] = sprayed the day before inoculation, unmarked compounds (no asterisk, not 40 or 10 ppm)
[13] = sprayed 17 h after inoculation, unmarked compounds (no asterisk, not 40 or 10 ppm)
[14] = sprayed the day before inoculation, 7 days at 20° C., unmarked compounds (no asterisk, not 40 or 10 ppm)
[15] = sprayed 24 h after inoculation, unmarked compounds (no asterisk, not 40 or 10 ppm)

Molecule: 2-[1-[(2,5-dichlorophenyl)acetyl]-4-piperidinyl]-N-methyl-N-[(1R)-1-phenylpropyl]-4-thiazolecarboxamide [Compound 110]
- Test A disease rating (100 = 100% disease control, 0 = no disease control) [1]: 0%
- Test C disease rating (100 = 100% disease control, 0 = no disease control) [2, 7]: 0%
- Test E disease rating (100 = 100% disease control, 0 = no disease control) [3, 7]: 21%
- Test B disease rating (100 = 100% disease control, 0 = no disease control) [4, 8]: 53%

Molecule: 2-[1-[(2,5-dimethylphenyl)acetyl]-4-piperidinyl]-N-methyl-N-[(1R)-1,2,3,4-tetrahydro-1-naphthalenyl]-4-oxazolecarboxamide [Compound 153]
- Test A disease rating (100 = 100% disease control, 0 = no disease control) [1]: 82%
- Test C disease rating (100 = 100% disease control, 0 = no disease control) [2, 7]: 0%
- Test E disease rating (100 = 100% disease control, 0 = no disease control) [3, 7]: 0%
- Test B disease rating (100 = 100% disease control, 0 = no disease control) [4, 8]: 28%

Molecule: 2-[1-[(2,5-dimethylphenyl)acetyl]-4-piperidinyl]-N-methyl-N-[(1R)-1-phenylpropyl]-4-thiazolecarboxamide [Compound 58]
- Test A disease rating (100 = 100% disease control, 0 = no disease control) [1]: 0%
- Test C disease rating (100 = 100% disease control, 0 = no disease control) [2, 7]: 56%
- Test E disease rating (100 = 100% disease control, 0 = no disease control) [3, 7]: 0%
- Test B disease rating (100 = 100% disease control, 0 = no disease control) [4, 8]: 20%

Molecule: 2-[1-[(3,5-dichloro-1H-pyrazol-1-yl)acetyl]-4-piperidinyl]-N-methyl-N-[(1R)-1,2,3,4-tetrahydro-1-naphthalenyl]-4-thiazolecarboxamide [Compound 238]
- Test A disease rating (100 = 100% disease control, 0 = no disease control) [1]: 0%
- Test C disease rating (100 = 100% disease control, 0 = no disease control) [2, 7]: 0%
- Test E disease rating (100 = 100% disease control, 0 = no disease control) [3, 7]: 0%
- Test B disease rating (100 = 100% disease control, 0 = no disease control) [4, 8]: 6%

Molecule: 2-[1-[[3,5-bis(trifluoromethyl)-1H-pyrazol-1-yl]acetyl]-4-piperidinyl]-N-methyl-N-[(1R)-1,2,3,4-tetrahydro-1-naphthalenyl]-4-thiazolecarboxamide [Compound 210]
- Test A disease rating (100 = 100% disease control, 0 = no disease control) [1]: 0%
- Test C disease rating (100 = 100% disease control, 0 = no disease control) [2, 7]: 0%
- Test E disease rating (100 = 100% disease control, 0 = no disease control) [3, 7]: 0%
- Test B disease rating (100 = 100% disease control, 0 = no disease control) [4, 8]: 6%

Molecule: 2-[1-[[5-chloro-3-(trifluoromethyl)-1H-pyrazol-1-yl]acetyl]-4-piperidinyl]-N-methyl-N-[(1R)-1,2,3,4-tetrahydro-1-naphthalenyl]-4-thiazolecarboxamide [Compound 249]
- Test A disease rating (100 = 100% disease control, 0 = no disease control) [1]: 0%
- Test C disease rating (100 = 100% disease control, 0 = no disease control) [2, 7]: 0%
- Test E disease rating (100 = 100% disease control, 0 = no disease control) [3, 7]: 0%
- Test B disease rating (100 = 100% disease control, 0 = no disease control) [4, 8]: 0%

Molecule: 2-[4-[(2,5-dimethylphenyl)acetyl]-1-piperazinyl]-N-methyl-N-[(1R)-1-phenylethyl]-5-thiazolecarboxamide [Compound 74]
- Test A disease rating (100 = 100% disease control, 0 = no disease control) [1]: 0%
- Test C disease rating (100 = 100% disease control, 0 = no disease control) [2, 7]: 0%
- Test E disease rating (100 = 100% disease control, 0 = no disease control) [3, 7]: 21%
- Test B disease rating (100 = 100% disease control, 0 = no disease control) [4, 8]: 14%

Molecule: C[C@H](c1ccccc1)N(C)C(=O)c1csc(C2CCN(C(=O)Cc3ccc(Cl)cc3Cl)CC2)n1 [compound 6]
- Test A disease rating (100 = 100% disease control, 0 = no disease control) [1]: 0%
- Test C disease rating (100 = 100% disease control, 0 = no disease control) [2, 7]: 0%
- Test E disease rating (100 = 100% disease control, 0 = no disease control) [3, 7]: 41%
- Test B disease rating (100 = 100% disease control, 0 = no disease control) [4, 8]: 28%

Molecule: C[C@H](c1ccccc1)N(C)C(=O)c1csc(C2CCN(C(=O)Cc3cccc(S(C)(=O)=O)c3)CC2)n1 [compound 31]
- Test A disease rating (100 = 100% disease control, 0 = no disease control) [1]: 0%
- Test C disease rating (100 = 100% disease control, 0 = no disease control) [2, 7]: 0%
- Test E disease rating (100 = 100% disease control, 0 = no disease control) [3, 7]: 0%
- Test B disease rating (100 = 100% disease control, 0 = no disease control) [4, 8]: 0%

Molecule: C[C@H](c1ccccc1)N(C)C(=O)c1csc(C2CCN(C(=O)Cc3ccc(F)c(C(F)(F)F)c3)CC2)n1 [compound 34]
- Test A disease rating (100 = 100% disease control, 0 = no disease control) [1]: 85%
- Test C disease rating (100 = 100% disease control, 0 = no disease control) [2, 7]: 31%
- Test E disease rating (100 = 100% disease control, 0 = no disease control) [3, 7]: 0%
- Test B disease rating (100 = 100% disease control, 0 = no disease control) [4, 8]: 48%

Molecule: C[C@H](c1ccccc1)N(C)C(=O)c1csc(C2CCN(C(=O)Cc3cc(F)cc(F)c3)CC2)n1 [compound 37]
- Test A disease rating (100 = 100% disease control, 0 = no disease control) [1]: 85%
- Test C disease rating (100 = 100% disease control, 0 = no disease control) [2, 7]: 80%
- Test E disease rating (100 = 100% disease control, 0 = no disease control) [3, 7]: 87%
- Test B disease rating (100 = 100% disease control, 0 = no disease control) [4, 8]: 23%

Molecule: Cc1ccc(C)c(CC(=O)N2CCC(c3nc(C(=O)N(C)C4CCCC(C)C4C)cs3)CC2)c1 (stereo not shown) [compound 177]
- Test F disease rating (100 = 100% disease control, 0 = no disease control) [5, 9]: 43%
- Test C disease rating (100 = 100% disease control, 0 = no disease control) [2, 7]: 100%
- Test D disease rating (100 = 100% disease control, 0 = no disease control) [6, 10]: 79%
- Test E disease rating (100 = 100% disease control, 0 = no disease control) [3, 7]: 0%
- Test B disease rating (100 = 100% disease control, 0 = no disease control) [4, 8]: 86%

Molecule: Cc1cc(C(F)(F)F)nn1CC(=O)N1CCC(c2nc(C(=O)N(C)C3CCCc4ccccc43)cs2)CC1 (stereo not shown) [compound 187]
- Test F disease rating (100 = 100% disease control, 0 = no disease control) [5, 9]: 93%
- Test C disease rating (100 = 100% disease control, 0 = no disease control) [2, 7]: 100%
- Test D disease rating (100 = 100% disease control, 0 = no disease control) [6, 10]: 99%
- Test E disease rating (100 = 100% disease control, 0 = no disease control) [3, 7]: 0%
- Test B disease rating (100 = 100% disease control, 0 = no disease control) [4, 8]: 98%

Molecule: Cc1cc(C(F)(F)F)nn1CC(=O)N1CCC(c2nc(C(=O)N(C)C3CCCc4cc(O)ccc43)cs2)CC1 (stereo not shown) [compound 190]
- Test F disease rating (100 = 100% disease control, 0 = no disease control) [5, 9]: 93%
- Test C disease rating (100 = 100% disease control, 0 = no disease control) [2, 7]: 100%
- Test D disease rating (100 = 100% disease control, 0 = no disease control) [6, 10]: 99%
- Test E disease rating (100 = 100% disease control, 0 = no disease control) [3, 7]: 0%
- Test B disease rating (100 = 100% disease control, 0 = no disease control) [4, 8]: 8%

Molecule: C[C@@H](NC(=O)c1csc(C2CCN(C(=O)Cc3cccc(Br)c3)CC2)n1)c1ccccc1C(F)(F)F [compound 275]
- Test F disease rating (100 = 100% disease control, 0 = no disease control) [5, 11]: 0
- Test C disease rating (100 = 100% disease control, 0 = no disease control) [2, 12]: 9
- Test D disease rating (100 = 100% disease control, 0 = no disease control) [6, 13]: 0
- Test E disease rating (100 = 100% disease control, 0 = no disease control) [3, 14]: 0
- Test B disease rating (100 = 100% disease control, 0 = no disease control) [4, 15]: 30

Molecule: CC[C@@H](NC(=O)c1csc(C2CCN(C(=O)Cc3cccc(Br)c3)CC2)n1)c1ccccc1 [compound 278]
- Test F disease rating (100 = 100% disease control, 0 = no disease control) [5, 11]: 93
- Test C disease rating (100 = 100% disease control, 0 = no disease control) [2, 12]: 33
- Test D disease rating (100 = 100% disease control, 0 = no disease control) [6, 13]: 0
- Test E disease rating (100 = 100% disease control, 0 = no disease control) [3, 14]: 0
- Test B disease rating (100 = 100% disease control, 0 = no disease control) [4, 15]: 0

Molecule: COc1ccc([C@@H](C)NC(=O)c2csc(C3CCN(C(=O)Cc4cccc(Br)c4)CC3)n2)cc1 [compound 279]
- Test F disease rating (100 = 100% disease control, 0 = no disease control) [5, 11]: 0
- Test C disease rating (100 = 100% disease control, 0 = no disease control) [2, 12]: 0
- Test D disease rating (100 = 100% disease control, 0 = no disease control) [6, 13]: 0
- Test E disease rating (100 = 100% disease control, 0 = no disease control) [3, 14]: 0
- Test B disease rating (100 = 100% disease control, 0 = no disease control) [4, 15]: 0

Molecule: Cc1ccc(C)c(CC(=O)N2CCC(c3nc(C(=O)N[C@H](C)c4ccccc4)cs3)CC2)c1 [compound 283]
- Test F disease rating (100 = 100% disease control, 0 = no disease control) [5, 11]: 99
- Test C disease rating (100 = 100% disease control, 0 = no disease control) [2, 12]: 84
- Test D disease rating (100 = 100% disease control, 0 = no disease control) [6, 13]: 0
- Test E disease rating (100 = 100% disease control, 0 = no disease control) [3, 14]: 0
- Test B disease rating (100 = 100% disease control, 0 = no disease control) [4, 15]: 48
